Measurements reported in PMC7010350 (ACS chemical biology, 2019).

Tests used:
Format in all cases: physicochemical
[1] = Thermostability, heat treatment at 95 °C for 2 h, LC-MS
[2] = Solubility of the lyophilized peptide on resuspension in water or methanol; details: aqueous suspension relyophilized and resuspended in methanol
[3] = Susceptibility of the disulfide bond to reduction with DTT or β-mercaptoethanol; details: LC-MS

| Substance | thermally induced unthreading (in words) [1] | solubility in methanol (in words) [2] | peptide reduced, 20 mM DTT with heating ([3]; 20 mM DTT, 95 °C for 2 h) | reduction of the disulfide bond, 20 mM DTT, room temperature ([3]; 20 mM DTT, room temperature 1 h, aqueous peptide 5.8 mg/mL) | peptide reduced, 5% β-ME with heating (in words) ([3]; 5% (~641 mM) β-mercaptoethanol, 95 °C for 2 h) |
| --- | --- | --- | --- | --- | --- |
| pandonodin C16A C21A [pandonodin AA] | significantly more pandonodin AA unthreaded than did wild-type pandonodin |  |  |  |  |
| pandonodin | only minimal unthreading | readily dissolved | less than 10% | no reduction products were observed | a majority of pandonodin was reduced |
